Source: ChEMBL document CHEMBL4390652, “Design, biological evaluation and X-ray crystallography of nanomolar multifunctional ligands targeting simultaneously acetylcholinesterase and glycogen synthase kinase-3” (Eur J Med Chem, 2019)

Tests used:
[1] = molecular target: Activin receptor type-1 (Homo sapiens) (UniProt Q04771); assay: Binding affinity to wild-type human ACVR1 (C188 to C509 residues) expressed in bacterial expression system assessed as residual binding level at 10 uM by Kinomescan method relative to control
[2] = molecular target: Aurora kinase A (Homo sapiens) (UniProt O14965); assay: Binding affinity to wild-type human partial length AURKA (E122 to K401 residues) expressed in mammalian expression system assessed as residual binding level at 10 uM by Kinomescan method relative to control
[3] = molecular target: Serine/threonine-protein kinase BRSK2 (Homo sapiens) (UniProt Q8IWQ3); assay: Binding affinity to wild-type human full length BRSK2 (M1 to L674 residues) expressed in bacterial expression system assessed as residual binding level at 10 uM by Kinomescan method relative to control
[4] = molecular target: Cyclin-dependent kinase 5 (Homo sapiens) (UniProt Q00535); assay: Binding affinity to wild-type human full length CDK5 (M1 to P292 residues) expressed in bacterial expression system assessed as residual binding level at 10 uM by Kinomescan method relative to control
Cyclin-dependent kinase 5 (Homo sapiens), sequence (Q00535 whole entry, looked up, the tested form may be a part, canonical isoform): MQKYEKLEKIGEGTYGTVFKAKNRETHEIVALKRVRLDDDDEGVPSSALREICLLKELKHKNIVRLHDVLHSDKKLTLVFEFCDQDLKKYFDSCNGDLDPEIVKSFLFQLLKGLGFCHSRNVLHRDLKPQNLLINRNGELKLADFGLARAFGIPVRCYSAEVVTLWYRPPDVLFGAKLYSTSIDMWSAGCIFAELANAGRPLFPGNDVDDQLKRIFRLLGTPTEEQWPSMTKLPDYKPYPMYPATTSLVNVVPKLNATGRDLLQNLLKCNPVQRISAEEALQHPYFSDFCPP

[5] = molecular target: Casein kinase I isoform alpha-like (Homo sapiens) (UniProt Q8N752); assay: Binding affinity to wild-type human full length CSNK1A1L (M1 to N337 residues) expressed in bacterial expression system assessed as residual binding level at 10 uM by Kinomescan method relative to control
[6] = system: Epidermal growth factor receptor (Homo sapiens), P00533 [UNDEFINED MUTATION]; assay: Binding affinity to human partial length EGFR S752-I759del mutant expressed in bacterial expression system assessed as residual binding level at 10 uM by Kinomescan method relative to control
[7] = system: Epidermal growth factor receptor (Homo sapiens), P00533 [T790M]; assay: Binding affinity to human partial length EGFR T790M mutant (R669 to G1022 residues) expressed in mammalian expression system assessed as residual binding level at 10 uM by Kinomescan method relative to control
[8] = molecular target: Tyrosine-protein kinase Fer (Homo sapiens) (UniProt P16591); assay: Binding affinity to wild-type human partial length FER (S542 to T822 residues) expressed in bacterial expression system assessed as residual binding level at 10 uM by Kinomescan method relative to control
Tyrosine-protein kinase Fer (Homo sapiens), sequence (P16591 whole entry, looked up, the tested form may be a part): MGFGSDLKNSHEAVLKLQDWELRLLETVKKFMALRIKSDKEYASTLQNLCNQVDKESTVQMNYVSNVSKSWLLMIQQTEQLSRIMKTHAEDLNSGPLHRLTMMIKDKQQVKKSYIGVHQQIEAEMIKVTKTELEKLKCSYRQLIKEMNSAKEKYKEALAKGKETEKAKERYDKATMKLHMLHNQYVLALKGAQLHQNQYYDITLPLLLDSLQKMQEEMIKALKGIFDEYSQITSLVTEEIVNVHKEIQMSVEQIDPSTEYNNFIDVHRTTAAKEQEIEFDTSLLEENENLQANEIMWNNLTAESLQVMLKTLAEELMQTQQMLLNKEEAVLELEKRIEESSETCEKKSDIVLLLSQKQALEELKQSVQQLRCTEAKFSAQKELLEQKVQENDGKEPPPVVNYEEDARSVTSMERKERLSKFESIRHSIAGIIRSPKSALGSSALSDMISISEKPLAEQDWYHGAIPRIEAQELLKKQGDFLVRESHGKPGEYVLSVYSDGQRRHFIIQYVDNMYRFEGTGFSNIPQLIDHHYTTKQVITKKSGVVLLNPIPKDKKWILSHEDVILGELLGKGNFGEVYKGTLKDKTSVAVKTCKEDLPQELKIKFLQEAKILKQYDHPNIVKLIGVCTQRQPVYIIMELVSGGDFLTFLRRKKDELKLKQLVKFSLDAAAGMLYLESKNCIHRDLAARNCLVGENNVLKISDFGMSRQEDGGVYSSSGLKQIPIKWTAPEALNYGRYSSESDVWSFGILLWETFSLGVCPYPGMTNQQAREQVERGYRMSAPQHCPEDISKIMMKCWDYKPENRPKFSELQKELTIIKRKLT

[9] = molecular target: Fibroblast growth factor receptor 1 (Homo sapiens) (UniProt P11362); assay: Binding affinity to wild-type human partial length FGFR1 (P357 to V669 residues) expressed in bacterial expression system assessed as residual binding level at 10 uM by Kinomescan method relative to control
[10] = system: Fibroblast growth factor receptor 3 (Homo sapiens), P22607 [G697C]; assay: Binding affinity to human partial length FGFR3 G697C mutant (R442 to S771 residues) expressed in bacterial expression system assessed as residual binding level at 10 uM by Kinomescan method relative to control
[11] = system: Receptor-type tyrosine-protein kinase FLT3 (Homo sapiens), P36888 [D835Y]; assay: Binding affinity to human partial length FLT3 D835Y mutant (Q580 to Y969 residues) expressed in bacterial expression system assessed as residual binding level at 10 uM by Kinomescan method relative to control
[12] = molecular target: Mitogen-activated protein kinase 10 (Homo sapiens) (UniProt P53779); assay: Binding affinity to wild-type human partial length JNK3 (V28 to Q422 residues) expressed in mammalian expression system assessed as residual binding level at 10 uM by Kinomescan method relative to control
[13] = molecular target: Mast/stem cell growth factor receptor Kit (Homo sapiens) (UniProt P10721); assay: Binding affinity to wild-type human partial length autoinhibited KIT (Y545 to D952 residues) expressed in mammalian expression system assessed as residual binding level at 10 uM by Kinomescan method relative to control
[14] = molecular target: Serine/threonine-protein kinase STK11 (Homo sapiens) (UniProt Q15831); assay: Binding affinity to wild-type human full length LKB1 (M1 to Q433 residues) expressed in bacterial expression system assessed as residual binding level at 10 uM by Kinomescan method relative to control
[15] = molecular target: Mitogen-activated protein kinase kinase kinase 3 (Homo sapiens) (UniProt Q99759); assay: Binding affinity to wild-type human partial length MAP3K3 (E320 to Y626 residues) expressed in mammalian expression system assessed as residual binding level at 10 uM by Kinomescan method relative to control
Mitogen-activated protein kinase kinase kinase 3 (Homo sapiens), sequence (Q99759 whole entry, the tested form may be a part): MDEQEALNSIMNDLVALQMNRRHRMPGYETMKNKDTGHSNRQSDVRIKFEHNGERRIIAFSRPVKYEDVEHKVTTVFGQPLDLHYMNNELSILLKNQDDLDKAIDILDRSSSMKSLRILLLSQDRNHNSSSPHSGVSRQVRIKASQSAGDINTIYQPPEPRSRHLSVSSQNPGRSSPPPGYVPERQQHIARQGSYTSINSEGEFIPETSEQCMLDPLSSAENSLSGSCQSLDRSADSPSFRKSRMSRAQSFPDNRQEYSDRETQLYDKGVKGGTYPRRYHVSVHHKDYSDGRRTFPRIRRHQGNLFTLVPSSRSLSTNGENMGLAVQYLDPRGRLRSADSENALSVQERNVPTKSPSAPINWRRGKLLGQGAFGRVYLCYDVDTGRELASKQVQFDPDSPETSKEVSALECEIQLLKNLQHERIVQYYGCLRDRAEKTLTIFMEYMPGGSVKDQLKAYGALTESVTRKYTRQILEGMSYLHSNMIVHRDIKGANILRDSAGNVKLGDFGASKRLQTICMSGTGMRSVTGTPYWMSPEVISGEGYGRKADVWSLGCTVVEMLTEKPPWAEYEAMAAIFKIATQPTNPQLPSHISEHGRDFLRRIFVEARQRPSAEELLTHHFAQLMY

[16] = molecular target: Mitogen-activated protein kinase kinase kinase 11 (Homo sapiens) (UniProt Q16584); assay: Binding affinity to wild-type human partial length MLK3 (I77 to W399 residues) expressed in bacterial expression system assessed as residual binding level at 10 uM by Kinomescan method relative to control
[17] = molecular target: Cyclin-dependent kinase 15 (Homo sapiens) (UniProt Q96Q40); assay: Binding affinity to wild-type human full length PFTAIRE2 (M1 to W384 residues) expressed in bacterial expression system assessed as residual binding level at 10 uM by Kinomescan method relative to control
Cyclin-dependent kinase 15 (Homo sapiens), sequence (Q96Q40 whole entry, the tested form may be a part, canonical isoform): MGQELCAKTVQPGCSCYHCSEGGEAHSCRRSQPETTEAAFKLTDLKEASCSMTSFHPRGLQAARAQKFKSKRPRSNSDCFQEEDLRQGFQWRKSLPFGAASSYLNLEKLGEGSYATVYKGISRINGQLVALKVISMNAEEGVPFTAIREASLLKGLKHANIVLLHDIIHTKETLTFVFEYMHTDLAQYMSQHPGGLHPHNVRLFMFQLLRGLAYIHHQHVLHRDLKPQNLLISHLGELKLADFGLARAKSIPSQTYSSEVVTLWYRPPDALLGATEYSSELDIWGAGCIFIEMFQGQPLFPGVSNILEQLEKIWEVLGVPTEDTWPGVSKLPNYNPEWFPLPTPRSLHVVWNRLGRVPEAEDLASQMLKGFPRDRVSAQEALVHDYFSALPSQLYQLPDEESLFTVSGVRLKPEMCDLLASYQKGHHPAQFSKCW

[18] = molecular target: Phosphatidylinositol 4,5-bisphosphate 3-kinase catalytic subunit alpha isoform (Homo sapiens) (UniProt P42336); assay: Binding affinity to wild-type human partial length PIK3CA (R108 to N1068 residues) expressed in mammalian expression system assessed as residual binding level at 10 uM by Kinomescan method relative to control
Phosphatidylinositol 4,5-bisphosphate 3-kinase catalytic subunit alpha isoform (Homo sapiens), sequence (P42336 whole entry, the tested form may be a part, canonical isoform): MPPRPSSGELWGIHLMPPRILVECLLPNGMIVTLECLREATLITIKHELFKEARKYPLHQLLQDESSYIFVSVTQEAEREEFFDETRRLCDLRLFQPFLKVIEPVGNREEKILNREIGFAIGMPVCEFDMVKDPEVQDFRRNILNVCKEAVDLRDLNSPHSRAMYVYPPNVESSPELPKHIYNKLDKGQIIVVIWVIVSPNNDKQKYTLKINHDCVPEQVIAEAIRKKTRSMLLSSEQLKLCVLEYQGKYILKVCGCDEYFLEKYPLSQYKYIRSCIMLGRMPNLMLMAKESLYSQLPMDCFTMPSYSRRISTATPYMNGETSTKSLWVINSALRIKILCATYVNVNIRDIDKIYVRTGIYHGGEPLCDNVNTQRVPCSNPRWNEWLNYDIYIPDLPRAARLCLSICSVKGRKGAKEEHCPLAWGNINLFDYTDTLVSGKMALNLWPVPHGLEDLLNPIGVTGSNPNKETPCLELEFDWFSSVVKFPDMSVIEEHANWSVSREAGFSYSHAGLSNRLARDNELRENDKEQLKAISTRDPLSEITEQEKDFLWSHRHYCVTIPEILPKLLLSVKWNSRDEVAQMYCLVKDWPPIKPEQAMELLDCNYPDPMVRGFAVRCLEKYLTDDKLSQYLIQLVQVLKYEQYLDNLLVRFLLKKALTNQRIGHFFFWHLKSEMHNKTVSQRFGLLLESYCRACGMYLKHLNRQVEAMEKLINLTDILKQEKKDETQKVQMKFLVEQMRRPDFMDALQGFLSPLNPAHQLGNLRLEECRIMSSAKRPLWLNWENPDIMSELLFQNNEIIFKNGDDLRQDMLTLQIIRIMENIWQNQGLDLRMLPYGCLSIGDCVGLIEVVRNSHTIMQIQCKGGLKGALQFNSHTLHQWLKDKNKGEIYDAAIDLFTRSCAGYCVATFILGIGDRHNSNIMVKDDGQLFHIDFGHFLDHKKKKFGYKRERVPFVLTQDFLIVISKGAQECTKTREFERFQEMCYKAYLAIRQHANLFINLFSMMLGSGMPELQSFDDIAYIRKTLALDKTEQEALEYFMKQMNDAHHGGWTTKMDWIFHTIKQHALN

[19] = system: Phosphatidylinositol 4,5-bisphosphate 3-kinase catalytic subunit alpha isoform (Homo sapiens), P42336 [E545K]; assay: Binding affinity to human partial length PIK3CA E545K mutant (R108 to N1068 residues) expressed in mammalian expression system assessed as residual binding level at 10 uM by Kinomescan method relative to control
[20] = molecular target: Serine/threonine-protein kinase SBK1 (Homo sapiens) (UniProt Q52WX2); assay: Binding affinity to wild-type human partial length SBK1 (P23 to P348 residues) expressed in mammalian expression system assessed as residual binding level at 10 uM by Kinomescan method relative to control
Serine/threonine-protein kinase SBK1 (Homo sapiens), sequence (Q52WX2 whole entry, the tested form may be a part): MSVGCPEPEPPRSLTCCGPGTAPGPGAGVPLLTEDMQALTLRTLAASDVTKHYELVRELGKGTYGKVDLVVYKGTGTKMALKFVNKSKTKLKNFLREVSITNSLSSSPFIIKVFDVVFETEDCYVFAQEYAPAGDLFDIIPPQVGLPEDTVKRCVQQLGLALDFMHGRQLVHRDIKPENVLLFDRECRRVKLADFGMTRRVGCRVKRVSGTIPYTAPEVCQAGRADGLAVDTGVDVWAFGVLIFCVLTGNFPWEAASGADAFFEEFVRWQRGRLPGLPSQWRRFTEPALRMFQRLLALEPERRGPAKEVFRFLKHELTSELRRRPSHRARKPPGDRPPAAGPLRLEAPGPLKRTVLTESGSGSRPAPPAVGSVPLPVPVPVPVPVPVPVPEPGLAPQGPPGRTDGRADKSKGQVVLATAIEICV

[21] = molecular target: Tyrosine-protein kinase Srms (Homo sapiens) (UniProt Q9H3Y6); assay: Binding affinity to wild-type human partial length SRMS (L208 to P488 residues) expressed in mammalian expression system assessed as residual binding level at 10 uM by Kinomescan method relative to control
Tyrosine-protein kinase Srms (Homo sapiens), sequence (Q9H3Y6 whole entry, the tested form may be a part): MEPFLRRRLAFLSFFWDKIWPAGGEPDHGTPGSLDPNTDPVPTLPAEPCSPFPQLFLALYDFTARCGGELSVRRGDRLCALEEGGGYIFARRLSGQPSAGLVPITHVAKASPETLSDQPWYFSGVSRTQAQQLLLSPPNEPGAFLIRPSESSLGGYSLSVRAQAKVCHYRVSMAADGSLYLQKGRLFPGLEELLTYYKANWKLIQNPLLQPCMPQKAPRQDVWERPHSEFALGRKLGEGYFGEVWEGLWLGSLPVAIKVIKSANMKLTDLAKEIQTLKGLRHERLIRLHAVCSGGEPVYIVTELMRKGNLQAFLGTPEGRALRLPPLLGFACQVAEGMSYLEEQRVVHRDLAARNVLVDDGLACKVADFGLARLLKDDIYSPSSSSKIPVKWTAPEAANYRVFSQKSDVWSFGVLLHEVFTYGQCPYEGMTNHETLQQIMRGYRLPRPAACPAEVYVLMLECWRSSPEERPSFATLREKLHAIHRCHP

[22] = molecular target: Serine/threonine-protein kinase 16 (Homo sapiens) (UniProt O75716); assay: Binding affinity to wild-type human partial length STK16 (G11 to I305 residues) expressed in bacterial expression system assessed as residual binding level at 10 uM by Kinomescan method relative to control
Serine/threonine-protein kinase 16 (Homo sapiens), sequence (O75716 whole entry, the tested form may be a part): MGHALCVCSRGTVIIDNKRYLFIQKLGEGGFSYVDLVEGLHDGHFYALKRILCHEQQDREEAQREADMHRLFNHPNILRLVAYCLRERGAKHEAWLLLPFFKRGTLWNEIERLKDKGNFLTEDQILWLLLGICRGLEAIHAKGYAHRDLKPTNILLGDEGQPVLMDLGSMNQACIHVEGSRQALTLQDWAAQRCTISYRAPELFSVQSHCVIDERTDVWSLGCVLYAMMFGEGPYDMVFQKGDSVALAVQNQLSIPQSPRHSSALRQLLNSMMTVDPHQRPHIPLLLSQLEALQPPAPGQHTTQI

[23] = molecular target: Angiopoietin-1 receptor (Homo sapiens) (UniProt Q02763); assay: Binding affinity to wild-type human partial length TIE2 (N804 to T1112 residues) expressed in bacterial expression system assessed as residual binding level at 10 uM by Kinomescan method relative to control
[24] = molecular target: Serine/threonine-protein kinase VRK2 (Homo sapiens) (UniProt Q86Y07); assay: Binding affinity to wild-type human partial length VRK2 (M1 to T336 residues) expressed in mammalian expression system assessed as residual binding level at 10 uM by Kinomescan method relative to control
Serine/threonine-protein kinase VRK2 (Homo sapiens), sequence (Q86Y07 whole entry, the tested form may be a part): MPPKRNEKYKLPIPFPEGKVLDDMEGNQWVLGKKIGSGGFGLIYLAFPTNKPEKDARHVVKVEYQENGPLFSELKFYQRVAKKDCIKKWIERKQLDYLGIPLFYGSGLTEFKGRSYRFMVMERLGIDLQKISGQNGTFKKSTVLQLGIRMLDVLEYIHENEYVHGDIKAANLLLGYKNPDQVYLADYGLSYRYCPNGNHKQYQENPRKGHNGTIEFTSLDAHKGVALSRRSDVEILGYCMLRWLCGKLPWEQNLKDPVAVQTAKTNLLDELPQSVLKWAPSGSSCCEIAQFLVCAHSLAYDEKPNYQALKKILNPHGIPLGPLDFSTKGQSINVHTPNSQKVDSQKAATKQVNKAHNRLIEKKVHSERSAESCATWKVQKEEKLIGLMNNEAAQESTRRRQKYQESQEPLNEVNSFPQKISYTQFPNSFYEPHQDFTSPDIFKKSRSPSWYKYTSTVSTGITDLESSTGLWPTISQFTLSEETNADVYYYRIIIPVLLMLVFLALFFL

O=C(Nc1cc(-c2cn(CCNc3c4c(nc5ccccc35)CCCC4)nn2)ccn1)Nc1cccc2c1C1CCCCN1C2=O (racemic) was tested, and the Activity [1] was 49%, the Activity [2] was 9.5% and the Activity [3] was 70%. It also gave an Activity [4] of 35%, an Activity [5] of 4.5% and an Activity [6] of 80%. It also gave an Activity [7] of 70%, an Activity [8] of 100% and an Activity [9] of 27%. The Activity [10] was 40%, the Activity [11] was 1.1% and the Activity [12] was 1.3%. The Activity [13] was 7%, the Activity [14] was 36% and the Activity [15] was 22%. It also gave an Activity [16] of 58%, an Activity [17] of 11% and an Activity [18] of 73%. The Activity [19] was 78%, the Activity [20] was 30% and the Activity [21] was 82%. It also gave an Activity [22] of 1.9%, an Activity [23] of 77% and an Activity [24] of 15%.
